Results on 11 compounds are retold here after ChEMBL document CHEMBL5329196, “Development of truncated Battacin antimicrobials featuring novel N-terminal fatty acids with an excellent safety profile” (Bioorg Med Chem Lett, 2023).

Data set [1] has as its system Staphylococcus aureus. Put plainly: Antibacterial activity against Staphylococcus aureus assessed as inhibition of bacterial growth incubated for 24 hrs by visual inspection analysis. The format is functional.
Data set [2] can be described thus: Induction of hemolysis in mouse RBC assessed as induction of hemoglobin release at ~100 uM incubated for 1 hr by absorbance based analysis. The format is toxicity, cell-based, Erythrocyte. The settings on record: mouse red blood cells (erythrocytes), read-out: Activity.
The nature of data set [3]: (§1) Cytotoxicity against human NCI-H460 cells assessed as reduction in cell viability measured after 24 hrs by quantitative live/dead fluorescence microscopy. Particulars: human, NCI-H460 cells; call rule not given here. The class given is toxicity, cell-based.
Data set [4] in a line: (§2) Cytotoxicity against human MDA-MB-231 cells assessed as reduction in cell viability measured after 24 hrs by quantitative live/dead fluorescence microscopy. The class given is toxicity, cell-based. The settings on record: human, MDA-MB-231 cells.
Data set [5] can be described thus: Selectivity ratio of EC50 for cytotoxicity against human MDA-MB-231 cells to EC50 for cytotoxicity against human NCI-H460 cells. The class given is functional.
Data set [6] can be described thus: (§3) Induction of hemolysis in mouse RBC assessed as induction of hemoglobin release incubated for 1 hr by absorbance based analysis. The format is toxicity, cell-based, Erythrocyte. The settings on record: mouse, mouse red blood cells (erythrocytes).
Data set [7] in a line: Therapeutic index, ratio of EC50 for induction of hemolytic activity against mouse RBC to MIC for antibacterial activity against Staphylococcus aureus. The class given is toxicity. Particulars: mouse red blood cells (erythrocytes), read-out: TI.
A short description of data set [8]: Pro-aggregation of the compound in human NCI-H460 cells at 1 mM by Bright field microscopic analysis. The format is physicochemical, cell-based. Particulars: nci-h460, 1000 µM.
Data set [9] in a line: Pro-aggregation of the compound in human NCI-H460 cells at 1 mM by fluorescence microscopic analysis. The class given is physicochemical, cell-based. Particulars: nci-h460, 1000 µM.
Data set [10] can be described thus: Pro-aggregation of the compound in human MDA-MB-231 cells at 1 mM by Bright field microscopic analysis. The class given is physicochemical, cell-based. The settings on record: mda-mb-231, 1000 µM.
A short description of data set [11]: Pro-aggregation of the compound in human MDA-MB-231 cells at 1 mM by fluorescence microscopic analysis. The format is physicochemical, cell-based. Particulars: mda-mb-231, 1000 µM.
Data set [12] can be described thus: Induction of hemolysis in mouse RBC assessed as induction of hemoglobin release at ~400 uM incubated for 1 hr by absorbance based analysis. The class given is toxicity, cell-based, Erythrocyte. The settings on record: mouse red blood cells (erythrocytes), read-out: Activity.
Data set [13] has as its system NCI-H460. The data set is described as §1. The class given is toxicity, cell-based. Particulars: nci-h460.
For data set [14], the system named is MDA-MB-231. The data set is described as §2. The class given is toxicity, cell-based. Particulars: mda-mb-231.
Data set [15] deals with Erythrocyte. The data set is described as §3. Particulars: erythrocyte. The format is toxicity, cell-based.

Values after ≈ are worked out from the molar mass of the structure shown. Where a SMILES comes first, the peptide text is derived from it.

By MIC is commonly meant the lowest concentration that inhibits growth of the organism. As a reminder, the EC50 is the concentration that produces a half-maximal response.

As to `C=CC(C)C(C)C(=O)N[C@H](CCN)C(=O)N[C@@H](CCN)C(=O)N[C@@H](CC(C)C)C(=O)N[C@H](Cc1ccccc1)C(=O)N[C@@H](CCN)C(N)=O` (stereo partly drawn), in [1], the MIC was 18.2 µM (≈ 12.5 µg/mL).
Regarding `CCCOc1ccc(/C=C/CCC(=O)N[C@H](CCN)C(=O)N[C@@H](CCN)C(=O)N[C@@H](CC(C)C)C(=O)N[C@H](Cc2ccccc2)C(=O)N[C@@H](CCN)C(N)=O)cc1`, the minimal inhibitory concentration (MIC) in data set [1] came to 1 µM (≈ 0.794 µg/mL). The hemolysis at 1 h, 100 µM in data set [2] amounted to 2.1%. For the same compound, the results for the EC50 at 24 h in data set [3] and in [4] were 90 µM and 221 µM, respectively. For the same compound, the “Ratio EC50” value in [5] was determined as 2. The EC50 at 1 h in data set [6] is around 330 µM. Besides, the selectivity ratio in [7] turned out to be 135. Besides, the outcome in data set [8], in data set [9], in [10] and in data set [11] was Active.
In the case of `CC(C)C[C@H](NC(=O)[C@H](CCN)NC(=O)[C@@H](CCN)NC(=O)CC/C=C/c1ccccc1)C(=O)N[C@H](Cc1ccccc1)C(=O)N[C@@H](CCN)C(N)=O`, the MIC in data set [1] came to 2.1 µM (≈ 1.55 µg/mL).
As to `COc1ccc(/C=C/CCC(=O)N[C@H](CCN)C(=O)N[C@@H](CCN)C(=O)N[C@@H](CC(C)C)C(=O)N[C@H](Cc2ccccc2)C(=O)N[C@@H](CCN)C(N)=O)cc1`, the minimal inhibitory concentration (MIC) in data set [1] was 2 µM (≈ 1.53 µg/mL).
For `CC(C)C[C@H](NC(=O)[C@H](CCN)NC(=O)[C@@H](CCN)NC(=O)C(C)C(C)/C=C/c1ccccc1)C(=O)N[C@H](Cc1ccccc1)C(=O)N[C@@H](CCN)C(N)=O` (stereo partly drawn), the MIC in data set [1] came to 1 µM (≈ 0.764 µg/mL). The hemolysis at 1 h, 400 µM in data set [12] was 3.4%. In addition, the EC50 at 24 h was 324 µM in [3] and 898 µM in data set [4]. The “Ratio EC50” value in data set [5] is reported as 2. Moreover, the EC50 at 1 h in [6] is at least 400 µM. For the same compound, the selectivity ratio in [7] was above 267. Moreover, the result in data set [8], in data set [9], in [10] and in [11] was Active.
On to `CCc1ccc(/C=C/CCC(=O)N[C@H](CCN)C(=O)N[C@@H](CCN)C(=O)N[C@@H](CC(C)C)C(=O)N[C@H](Cc2ccccc2)C(=O)N[C@@H](CCN)C(N)=O)cc1`, for which the MIC in data set [1] amounted to 1 µM (≈ 0.764 µg/mL).
Consider `CCCCc1ccc(/C=C/CCC(=O)N[C@H](CCN)C(=O)N[C@@H](CCN)C(=O)N[C@@H](CC(C)C)C(=O)N[C@H](Cc2ccccc2)C(=O)N[C@@H](CCN)C(N)=O)cc1`, for which the MIC in data set [1] turned out to be 1 µM (≈ 0.792 µg/mL). Also, the hemolysis at 1 h, 100 µM in data set [2] amounted to 56%. In addition, the hemolysis at 1 h, 400 µM in [12] came to 77%. Moreover, the results for the EC50 at 24 h in data set [3] and in data set [4] were 31 µM and 67 µM, respectively. The “Ratio EC50” value in [5] amounted to 2. Also, the EC50 at 1 h in data set [6] was around 90 µM. For the same compound, the selectivity ratio in [7] turned out to be 60. The result in data set [8], in data set [9], in data set [10] and in data set [11] was Active.
Consider `C=CCCC(=O)N[C@H](CCN)C(=O)N[C@@H](CCN)C(=O)N[C@@H](CC(C)C)C(=O)N[C@H](Cc1ccccc1)C(=O)N[C@@H](CCN)C(N)=O`, for which, in [1], the MIC stood at 75.8 µM (≈ 50 µg/mL).
The same measure, in the same setting: in the case of `CCC(C)CCC(=O)N[C@H](CCN)C(=O)N[C@@H](CCN)C(=O)N[C@@H](CC(C)C)C(=O)N[C@H](Cc1ccccc1)C(=O)N[C@@H](CCN)C(N)=O` (stereo partly drawn) (HELM PEPTIDE1{[CCC(C)CCC(=O)[*:2]].[NCC[C@@H](N[*:1])C(=O)[*:2]].[Dab].L.[dF].[Dab].[am]}$$$$V2.0) it was 4.5 µM (≈ 3.1 µg/mL); in that of `CN[C@@H]1[C@H](O[C@H]2[C@H](O[C@H]3[C@H](O)[C@@H](O)[C@H](N=C(N)N)[C@@H](O)[C@@H]3N=C(N)N)O[C@@H](C)[C@]2(O)C=O)O[C@@H](CO)[C@H](O)[C@H]1O` [STREPTOMYCIN], 1.3 µM (≈ 0.756 µg/mL).
On to POLYMYXIN B, for which the concentration giving a half-maximal response (EC50) was 181 µM in [13], above 1 mM in data set [14] and at least 1 mM in data set [15]. The Activity result in data set [8], in [9], in data set [10] and in [11] was “Not Active” throughout.
